Data published in patent publication US6566047B1, “Method for identifying neurite-growth promoting agents” (The Regents of the University of Colorado, priority 1998, dated 2003).
Where two headings read alike, the source gives them in different places.

How the values were obtained:
AT-2 cells = test: Pseudopod length / retraction assay, AT-2 cells; type: cell-based, rat; settings: AA even at 10^−1M
Experimental: Pseudopod Morphometry. To study the effects of various agents on pseudopods on a short-term basis, we measured pseudopod lengths. Cells plated in 35-mm diameter dishes at low density (1×10^4 per dish) were incubated overnight, tie medium was changed, and the experiments were run four hours later. First, cultures were shifted to serum-free medium, which was replaced one hour later by serum-free medium with or without the various agents (thrombin, AA or HETEs). Care was taken to avoid heat and light inactivation of the eicosanoids. Culture dishes were placed on a Zeiss inverted microscope equipped with a heated stage and viewed with a 16×phase contrast objective lens. Randomly selected fields of the cultures, containing generally about 20 cells each, were recorded, digitized and stored in the computer at the onset of the experiment and at different times thereafter.
In some cases, individual cells were monitored over different periods of time immediately after introduction of the reagent, either by mixing it into the medium or by applying it locally to one end of the cell. Local application was done with a “puffer” system that expels microliter amounts of the desired solution from a micromanipulator-controlled micropipette tip. Cell morphology was recorded, and the captured images were analyzed with a Power Macintosh computer using NIH Image. Cell process length was measured from the center of the nucleus to the end of the process. Characterization of the frequencies of pseudopod lengths, at a fixed time for each of a sequence of concentrations of reagent, utilized a gamma regression model with an inverse quadratic linear predictor (McCullagh and Nelder, Generalized Linear Models 2d ed., pp. 291-292 (Chapman & Hall, 1989), separately fit to each concentration data set. Although no formal goodness-of-fit tests were carried out, in virtually every case there was good visual representation of the pattern of response (see FIG. 14). Most data, however, are shown as whisker-box plots, where the center point represents the 50%, the ends of the box the […] and 75%, and the “whiskers” the 5% and 95% quantiles (e.g., FIG. 11). Statistical comparisons of pseudopod lengths for different treatments were done by standard non-parametric techniques (Wilcoxon Rank Sum or Kruskal-Wallis Tests), as judged appropriate. Polynomial curve fittings were done by standard least-squares techniques. Statistical analyses and graphing were done with the use of SAS procedures: Reg, Phreg, Nparlway and Plot (SAS institute Inc., Cary, N.C.).

phospholipase C = settings: thrombin stimulation as for PLA2
Experimental: MAT-Lu cells were plated at a density of 0.5×10^6 cells per flask (T-75) and grown as detailed above to approximately 25% confluency. On the day before the experiments, the serum level in the medium was dropped to 1%. Cells were fed with fresh 1% serum-medium 4 hrs prior to harvest. For harvesting, cells were rinsed with Ca^++,Mg^++-free HBSS, covered with 2 ml cold Ca^++-free modified Krebs buffer (220 mM sucrose, 50 mM NaCl, 5 mM KCl, 22 mM HEPES, 10 mM glucose. 1.2 mM NaH2PO4 and 1.2 mM MgCl2, pH 7.3), and placed on ice. Cells were scraped off, pelleted for 5 min at 200 rpm and re-suspended in a minimal volume of Krebs buffer. Aliquots were used to determine protein concentration (Biorad Assay) and phopholipase activity. […] Lipid extraction followed by thin-layer chromatography (Negre-Aminou et al., J Neurochem 67:2599-2608 (1996)) isolated the reaction product (identified by co-migration with AA standard), which was then scraped off the plates and analyzed in a scintillation spectrometer (Beckman). In some experiments, especially those involving ^14C-AA-phosphatidylinositol as substrate, the diacylglycerol-containing band (identified by co-migration of standard) also was scraped and counted in order to measure phospholipase C (PLC) activity.

PC-3M-MM2 cells = test: Boyden chamber assay, PC-3M-MM2 cells; type: cell-based, human
Experimental: In addition, seven human prostate carcinoma cell lines were used (see Table 2). One or two cell lines of medium to high motility (e.g., PC-3M-MM2 and DU145) are first selected. The PC-3M-MM2 cells disperse rapidly in the dish and, like the MAT-Lu cells, never form colonies. Cells are grown according to standard procedures. Large numbers of aliquots of all cancer cell lines arc collected and frozen in order to avoid the use of higher passage numbers in later experiments. As the experimentation progresses, the motility and morphology of the cells is re-checked to avoid distortion of results by changes in phenotype. For experimental use, cells are kept well below confluence. In order to test for potential effects of the growth matrix, cells are grown for selected experiments not only on serum-conditioned tissue culture plastic but also on laminin, collagen, fibronectin or Matrigel (Life Technologies/GIBCO-BRL, Gaitheresberg, Md.; Becton Dickinson/Collaborative Biomedical Products, Bedford Mass.). […] The motility, of all cells is assessed quantitatively using the (long-term) Boyden chamber assay as described in Boyden, J. Exp. Med. 115:453-466 (1962), incorporated herein by reference. […] The relative number of cells moving within 3-6 hours across the membrane from the upper well is counted in the presence or absence of IGF-1 in the lower chamber.

[1] = test system: growth cones in cultures of rat cerebral cortex; test: Growth cone collapse assay in cortical neuron culture; type: cell-based; settings: thrombin 100 nM
Outline: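 Cortical explants from E18 Sprague-Dawley rats were grown 2–3 days on poly-D-lysine, serum-free after 24 h, then pre-incubated 30–60 min at 37 °C with inhibitor or vehicle before repellent factor challenge for 1–30 min. Collapse was graded in randomly selected growth cones in aldehyde-fixed cultures (fixed after 7 min) or imaged live.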

cPLA2 = cPLA2 activation in AT-2 cells; type: biochemical, rat
Experimental: FIG. 9. Thrombin activation of cPLA2 in AT-2 cells incubated with either ^14C-AA-PI, -PC or -PE as substrate, for 10 min at 37° C. Released AA and diacylglycerol were isolated and counted.

## thrombin: potent growth cone repellent; commercially available thrombin (Sigma); rat thrombin in Boyden assays
AT-2 cells
  pseudopod retraction response of AT-2 cells: essentially did not respond
Phospholipase C
  effect on DAG release from PI / phospholipase C (words): reduced DAG release rather than stimulating it
Phospholipase C; listed as Thrombin
  effect on DAG release from PI / phospholipase C (words): did not activate phospholipase C in MAT-Lu cells
PC-3M-MM2 cells
  effect on cell motility: potent inhibitor of cell motility
[1]
  time until most growth cones are fully collapsed: 10 to 20 min
[1]; TRAP (100 mM), 12(S)-HETE 10^−7 M
  growth cone collapse, agent alone: most growth cones are fully collapsed
cPLA2
  stimulation of cPLA2, PC substrate: over 100 fold
  stimulation of cPLA2, PE substrate: about 30 fold
  stimulation of cPLA2, PI substrate: over 100 fold
